Reference: patent publication US20130023504A1, “Modulation of Prostaglandin/Cyclooxygenase Metabolic Pathways” (HUNTER-FLEMING LIMITED, priority 2006, published 2013)
Several values for one entry are separate records, joined by “and”; a condition that tells them apart may be missing. Equal values may be shown once.

Columns and labels:
rat sensory neurones [1] = experiment: Cisplatin-induced neuronal cell death, number of cell bodies per field in dorsal root ganglia sensory neurones (anti MAP-2); format: cell-based; settings: for % Control without cisplatin (cell bodies) / number of cell bodies per field, Average: cisplatin 3 μg/ml
Method: (§1) Primary cultures of dissociated dorsal root ganglia sensory neurones were incubated with 3 μg/ml cisplatin, with and without 7β-OH EPIA for 48 hours and 72 hours and the following parameters were evaluated:
neurone cell bodies stained with an anti MAP 2 antibody (microtubule associated protein 2)
(§2) Rat sensory neurones were prepared according to the method described by Hall et al 1997 [Hall et al. (J. Neurosci. 1997 Apr. 15; 17(8); 2775-84]. Briefly, a female rat (15 days gestation) was killed by cervical dislocation (Rats Wistar; Janvier, Le Genest-St-lsle, France) and the foetuses removed from the uterus. Their spinal cords with the dorsal root ganglia (DRG) were removed and placed in ice-cold medium of Leibovitz (L15, Fisher 11415-049) containing Penicillin 50 UI/ml-Streptomycin 50 μg/ml (PS, 1%) and bovine serum albuminutes (BSA 1%, Sigma A6003). The DRG were recovered and dissociated by trypsinisation for 20 minutes at 37° C. (trypsin EDTA 10×, 10%, Fisher 15400054) diluted in PBS without calcium and magnesium (Fisher 2007-03). The reaction was stopped by addition of Dulbecco modified Eagle medium (DMEM, Fisher 21969-035) containing DNase I grade II (0.1 mg/ml Roche diagnostic 104159) and foetal bovine serum (FBS 10%, Fisher 10270-098). The cell suspension was triturated with a 10 ml pipette and centrifuged at 350×g for 10 minutes at room temperature. The pellet of dissociated cells was then resuspended in defined culture medium.
(§3) Viable cells were counted in a Neubauer cytometer using the trypan blue exclusion test (Sigma) and seeded at a density of 30 000 cells/well in 96 well-plates (Nunc). Wells were pre-coated with poly-L-lysine (10 μg/ml, Sigma P2636) in ultra pure sterile water (Merck Eurolab 60759.01).
(§4) Cells were allowed to adhere for 2 h and maintained in a humidified incubator at 37° C. in 5% CO2/95% air atmosphere.
(§5) After 5 days of culture, the culture medium was changed into a defined culture medium following the different conditions described below:
(§6) Test compound 7β-OH EPIA (1 nM, 10 nM and 100 nM)+cisplatin (3 μg/ml)
(§7) Reference compound NGF (10 ng/ml)+cisplatin (3 μg/ml)
(§8) Six wells per condition were carried out to assess neuronal survival. After 48 hours and 72 hours of incubation, the neuronal cells were fixed for 5 minutes in an ethanol/acetic acid solution (95%/5%) at −20° C. and rinsed 3 times in PBS.
(§9) Cell bodies of sensory neurones were labelled by monoclonal anti MAP-2 antibody (Sigma M4403) and the neurite of sensory neurones were labelled by monoclonal β-Tubulin antibody (Sigma T8660). These antibodies were diluted at 1:400 in incubation solution (PBS with 5% of FCS and 0.1% of saponin, Sigma S-7900). These antibodies specifically label neurone cell bodies and neuritis, respectively.
(§10) After 2 hours of incubation, the cells were washed in PBS and incubated with Alexa Fluor 488 goat anti mouse IgG (Molecular Probes A11001) diluted at 1:300 in incubation solution to reveal the MAP-2 and the β-Tubulin antibodies. Cell nuclei were stained with a fluorescent marker (Hoechst staining solution, SIGMA H6024, 1 μg/ml in incubation solution during 1 hour).
(§11) For each condition, 2 pictures per well (12 pictures per condition) were taken using In Cell Analyzer 1000 (Amersham Biosciences) controlled by the computer software In Cell Analyzer 1000 3.2. For the MAP-2 labelling, the magnification was ×10, for the β-Tubulin labelling, the magnification was ×20. For each labelling, all the images were taken in the same conditions.
(§12) Analysis of the number of cell bodies labelled with anti-MAP-2 antibodies, and total length of neurites labelled with anti β-Tubulin antibodies, were carried out using In Cell Analyzer 1000 3.2.Workstation software. The results were expressed in percentage compared to the vehicle. The comparisons of each group were carried out using the unpaired T test.

rat sensory neurones [2] = experiment: Cisplatin-induced loss of neurite density in primary dorsal root ganglia sensory neurones (anti β-Tubulin); format: cell-based; settings: for % Control without cisplatin (neurite length) / Mean neurite length: cisplatin 3 μg/ml
Method: as §1
neurite network density stained with an anti 8-Tubulin antibody
as §2, §3, §4, §5, §6, §7, §8, §9, §10, §11, §12

CC12CCC3C(C1CCC2=O)[C@@H](O)C[C@H]1C[C@@H](O)CCC31C (stereo partly drawn) [Compound 7β-OH-EPIA, 7β-hydroxy-EPIAndrosterone]
reduction of cisplatin-induced cell death (rat sensory neurones [1]; 1 nM, 48 hours): 53.1% | reduction of cisplatin-induced cell death (rat sensory neurones [1]; 1 nM, 72 hours): 93% | % Control without cisplatin (cell bodies) (rat sensory neurones [1]; 1 nM, 48 hours): 85% | number of cell bodies per field, Average (rat sensory neurones [1]; 1 nM, 48 hours): 51 and 51.42 | % Control without cisplatin (cell bodies) (rat sensory neurones [1]; 1 nM, 72 hours): 98% | number of cell bodies per field, Average (rat sensory neurones [1]; 1 nM, 72 hours): 52 and 52.42 | reduction of cisplatin-induced cell death (rat sensory neurones [1]; 10 nM, 48 hours): 18.7% | reduction of cisplatin-induced cell death (rat sensory neurones [1]; 10 nM, 72 hours): 104% | % Control without cisplatin (cell bodies) (rat sensory neurones [1]; 10 nM, 48 hours): 75% | number of cell bodies per field, Average (rat sensory neurones [1]; 10 nM, 48 hours): 45 and 45.50 | % Control without cisplatin (cell bodies) (rat sensory neurones [1]; 10 nM, 72 hours): 1.2% | number of cell bodies per field, Average (rat sensory neurones [1]; 10 nM, 72 hours): 55 and 54.58 | reduction of cisplatin-induced cell death (rat sensory neurones [1]; 100 nM, 48 hours): 43.8% | reduction of cisplatin-induced cell death (rat sensory neurones [1]; 100 nM, 72 hours): 93% | % Control without cisplatin (cell bodies) (rat sensory neurones [1]; 100 nM, 48 hours): 82% | number of cell bodies per field, Average (rat sensory neurones [1]; 100 nM, 48 hours): 50 and 49.58 | % Control without cisplatin (cell bodies) (rat sensory neurones [1]; 100 nM, 72 hours): 97% | number of cell bodies per field, Average (rat sensory neurones [1]; 100 nM, 72 hours): 52 and 52.25 | reduction of cisplatin-induced toxicity (neurite loss) (rat sensory neurones [2]; 1 nM, 48 hours): 90.7% | reduction of cisplatin-induced toxicity (neurite loss) (rat sensory neurones [2]; 1 nM, 72 hours): 70.8% | % Control without cisplatin (neurite length) (rat sensory neurones [2]; 1 nM, 48 hours): 99% | Mean neurite length (rat sensory neurones [2]; 1 nM, 48 hours): 5378 μm and 5377.89 μm | % Control without cisplatin (neurite length) (rat sensory neurones [2]; 1 nM, 72 hours): 93% | Mean neurite length (rat sensory neurones [2]; 1 nM, 72 hours): 4948 μm and 4947.99 μm | reduction of cisplatin-induced toxicity (neurite loss) (rat sensory neurones [2]; 10 nM, 48 hours): 101% | % Control without cisplatin (neurite length) (rat sensory neurones [2]; 10 nM, 48 hours): 102% | Mean neurite length (rat sensory neurones [2]; 10 nM, 48 hours): 5549 μm and 5549.41 μm | % Control without cisplatin (neurite length) (rat sensory neurones [2]; 10 nM, 72 hours): 80% | Mean neurite length (rat sensory neurones [2]; 10 nM, 72 hours): 4275.04 μm | % Control without cisplatin (neurite length) (rat sensory neurones [2]; 100 nM, 48 hours): 81% | Mean neurite length (rat sensory neurones [2]; 100 nM, 48 hours): 4442.51 μm | % Control without cisplatin (neurite length) (rat sensory neurones [2]; 100 nM, 72 hours): 77% | Mean neurite length (rat sensory neurones [2]; 100 nM, 72 hours): 4080.89 μm
